This passage reports EC50 results from patent publication US10800789B2, “Antiviral compounds” (Gilead Pharmasset LLC, priority 2012, dated 2020).

Each structure is given as a SMILES string. pEC50: −log10 of the molar value. Read-outs that look alike come from different tables or passages of the source. Bounds are passed on as bounds.

Assay [1] relates to NS5A chimeric genotype 2a JFH-1 replicon with genotype 2b MD2b-1 strain NS5A gene (M31 present). The assay is described as follows: Replicon assay, genotype 2b NS5A chimera. Type of assay: cell-based, HCV. The conditions noted are these: Hepatitis C virus; for pEC50: activity range. Put shortly:
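EC50 was fitted by non-linear regression to Renilla luciferase signal after 72 h of exposure to 3-fold serially diluted compound (10 mM DMSO stocks). Controls were DMSO (none) and ITMN-191 above 100×EC50 (full). Chimeric 2a replicons were used either stable or transiently transfected into Huh-Lunet cells.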
Background: In antiviral work, replicon cells carry a viral genome segment that copies itself.

Assay [2] relates to NS5A chimeric genotype 2a JFH-1 replicon with genotype 2a J6 strain NS5A gene (M31 present). The assay is described as follows: Replicon assay, genotype 2a J6 NS5A chimera. The class given is cell-based, HCV. The conditions noted are these: Hepatitis C virus; for EC50: read-out: 2a J6 (t) (nM), genotype 2a J6 NS5A chimeric replicon (M31), transiently transfected (t) into Huh-Lunet cells; for pEC50: read-out: 2a J6 (t), transiently transfected (t) into Huh-Lunet cells, activity range. Put shortly:
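Cells carrying the stable or transiently transfected (Huh-Lunet) dicistronic RLuc replicons received 3-fold serial compound dilutions from 10 mM DMSO stocks. After 72 h, cells were lysed and Renilla luciferase read. DMSO served as the no-inhibition control and ITMN-191 above 100×EC50 as the positive control; EC50 by non-linear regression.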

Assay [3] deals with NS5A chimeric genotype 1b Con1 replicon with genotype 4a ED43 strain NS5A gene. The assay is described as follows: Replicon assay, genotype 4a NS5A chimera. The class given is cell-based, HCV. As to conditions: Hepatitis C virus; for EC50: read-out: 4a (s) (nM), genotype 4a NS5A chimeric replicon, stable replicon cells (s); for pEC50: read-out: 4a (s), (s), activity range.
Assay [4] concerns Q30R in genotype 1a NS5A (1a Pi-Rluc replicon, Huh-7-derived cured-51 cells). The assay is described as follows: Replicon assay against resistance mutant 1a Q30R. The class given is cell-based, HCV. The conditions noted are these: Hepatitis C virus; for pEC50: read-out: 1a Q30R; for EC50: read-out: 1a Q30R (nM). On the procedure:
Antiviral potency (EC50) was determined using a Renilla luciferase (RLuc)-based HCV replicon reporter assay. To perform the assay for genotype 1 and 2a JFH-1, stable HCV 1a RLuc replicon cells (harboring a dicistronic genotype 1a H77 replicon that encodes a RLuc reporter), stable HCV 1b RLuc replicon cells (harboring a dicistronic genotype 1b Con1 replicon that encodes a RLuc reporter), or stable HCV 2a JFH-1 Rluc replicon cells (harboring a dicistronic genotype 2a JFH-1 replicon that encodes a RLuc reporter; with L31 present in NS5A) were dispensed into 384-well plates for EC50 assays. To perform the assay for genotype 2a (with M31 present in NS5A) or 2b, NS5A chimeric genotype 2a JFH-1 replicons that encodes a RLuc-Neo reporter and either genotype 2a J6 strain NS5A gene or genotype 2b MD2b-1 strain NS5A gene (both with M31 present) respectively, were either transiently transfected (t) into Huh-Lunet cells or were established as stably replicating replicon cells (s) is provided. Either cells were dispensed into 384-well plates for EC50 assays. To perform the assay for genotype 3 and 4, NS5A chimeric genotype 1b Con1 replicons that encodes a Pi-RLuc reporter and either genotype 3a S52 strain NS5A gene or genotype 4a ED43 strain NS5A gene respectively, were transiently transfected (t) into Huh-Lunet cells, which were subsequently dispensed into 384-well plates. Compounds were dissolved in DMSO at a concentration of 10 mM and diluted in DMSO either manually or using an automated pipeting instrument. Serially 3-fold diluted compounds were either manually mixed with cell culture media and added to the seeded cells or directly added to the cells using an automated instrument. DMSO was used as a negative (solvent; no inhibition) control, and the protease inhibitor ITMN-191 was included at a concentration>100×EC50 as a positive control. 72 hours later, cells were lysed and Renilla luciferase activity quantified as recommended by the manufacturer (Promega-Madison, Wis.). Non-linear regression was performed to calculate EC50 values.
To determine the antiviral potency (EC50) against resistance mutants, resistance mutations, including M28T, Q30R, Q30H, Q30E, L31M, Y93C, Y93H, and Y93N in genotype 1a NS5A, Y93H and L31V/Y93H in genotype 1b NS5A, and Y93H for in genotype 3a NS5A, were introduced individually into either 1a Pi-Rluc or 1b Pi-Rluc replicons by site directed mutagenesis. Replicon RNA of each resistant mutant was transiently transfected into Huh-7-derived cured-51 cells and antiviral potency was determined on these transfected cells as described above.

The subject of assay [5] is NS5A chimeric genotype 1b Con1 replicon with genotype 3a S52 strain NS5A gene. The assay is described as follows: Replicon assay, genotype 3a NS5A chimera. As to conditions: Hepatitis C virus; for pEC50: activity range. Type of assay: cell-based, HCV.
Assay [6] relates to stable HCV 1a RLuc replicon cells (dicistronic genotype 1a H77 replicon). As to the kind of experiment: Renilla luciferase HCV replicon reporter assay, genotype 1a. The class given is cell-based. The conditions noted are these: Hepatitis C virus, 72 h, stable 1a H77 RLuc replicon cells. The method in brief:
(§1)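 72 h compound exposure (3-fold dilutions from 10 mM DMSO stocks) of replicon cells: stable dicistronic RLuc 1a H77, 1b Con1, 2a JFH-1 (NS5A L31); J6-NS5A chimera in JFH-1 (M31), transient in Huh-Lunet or stable. Renilla luciferase read-out, non-linear regression → EC50. DMSO negative control.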

Assay [7] relates to stable HCV 1b RLuc replicon cells (dicistronic genotype 1b Con1 replicon). As to the kind of experiment: Renilla luciferase HCV replicon reporter assay, genotype 1b. The conditions noted are these: Hepatitis C virus, 72 h, stable 1b Con1 RLuc replicon cells, 72 hours; read-out: 1b. The class given is cell-based. Put shortly: as §1
The subject of assay [8] is stable HCV 2a JFH-1 Rluc replicon cells (L31 present in NS5A). As to the kind of experiment: Renilla luciferase HCV replicon reporter assay, genotype 2a JFH-1. Type of assay: cell-based. As to conditions: Hepatitis C virus; for EC50: read-out: 2a JFH (nM), genotype 2a JFH-1 replicon (L31 in NS5A), stable cells; for pEC50: read-out: 2a JFH, stable 2a JFH-1 Rluc replicon cells, L31 in NS5A, activity range. Put shortly:
as §1

[9] abbreviates: 2BS, read-out: 2b (s), stably replicating replicon cells (s).
Where [10] appears, read: read-out: 2b (s) (nM), genotype 2b MD2b-1 NS5A chimeric replicon (M31), stably replicating replicon cells (s).
The mark [11] stands for this setting: read-out: 3a (s) (nM), genotype 3a NS5A chimeric replicon, stable replicon cells (s).
The mark [12] stands for this setting: read-out: 3a (t) (nM), genotype 3a NS5A chimeric replicon, transiently transfected (t).
Where [13] appears, read: read-out: 3a (t), transiently transfected (t) into Huh-Lunet cells.

As to `CC[C@H]1CC[C@@H](c2ncc(-c3ccc4c(c3)COc3cc5c(ccc6nc([C@@H]7CC[C@H](C)N7C(=O)[C@@H](NC(=O)OC)[C@@H](C)OC)[nH]c65)cc3-4)[nH]2)N1C(=O)[C@@H](NC(=O)OC)C1CCOCC1` [HY], the pEC50 in assay [1] (setting [9]) is more than 10.00; in assay [1] (read-out: 2b (t), transiently transfected (t) into Huh-Lunet cells) it was more than 10.00; in assay [2] it was more than 10.00; in assay [3], more than 10.00; in assay [4], more than 10.00; in assay [5] (read-out: 3a (s), (s)), more than 10.00. For the same compound, the pEC50 in assay [5] (setting [13]) was more than 10.00; in assay [6], 10.82; in assay [6] (activity range) it was more than 10.00; in assay [7], 10.55; in assay [8], more than 10.00. For the same compound, the EC50 in assay [1] (setting [10]) was 0.049 nM; in assay [1] (read-out: 2b (t) (nM), genotype 2b MD2b-1 NS5A chimeric replicon (M31), transiently transfected (t)), 0.031 nM; in assay [2] it was 0.026 nM; in assay [3], 0.017 nM; in assay [4], 0.046 nM; in assay [5] (setting [11]), 0.052 nM. Besides, the EC50 is 0.055 nM in assay [5] (setting [12]) and 0.015 nM in assay [8].

For the compound `COC(=O)N[C@H](C(=O)N1[C@@H](C)CC[C@H]1c1ncc(-c2ccc3c(c2)COc2cc4c(ccc5nc([C@@H]6CC[C@H](C)N6C(=O)[C@@H](NC(=O)OC)[C@@H](C)OC(C)(C)C)[nH]c54)cc2-3)[nH]1)C(C)C` [FG, Methyl {(2S,3R)-3-tert-butoxy-1-[(2S,5S)-2-(9-{2-[(2S,5S)-1-{(2S)-2-[(methoxycarbonyl)amino]-3-methylbutanoyl}-5-methylpyrrolidin-2-yl]-1H-imidazol-5-yl}-1,11-dihydroisochromeno[4′,3′:6,7]naphtho[1,2-d]imidazol-2-yl)-5-methylpyrrolidin-1-yl]-1-oxobutan-2-yl}carbamate], the pEC50 in assay [1] (setting [9]) was 7.36 to 9.00; in assay [2], 7.36 to 9.00; in assay [3] it was more than 10.00; in assay [4] it was 9.00 to 10.00; in assay [5] (read-out: 3a (s), (s)), 9.00 to 10.00; in assay [6] it was 10.62. The results for the pEC50 in assay [6] (activity range), in assay [7] and in assay [8] were more than 10.00, 10.40 and more than 10.00, respectively. Also, the EC50 was 1.53 nM in assay [1] (setting [10]); 1.45 nM in assay [2]; 0.044 nM in assay [3]; 0.577 nM in assay [4]; 0.298 nM in assay [5] (setting [11]); 0.047 nM in assay [8].

Turning to `COC(=O)N[C@H](C(=O)N1[C@@H](C)CC[C@H]1c1nc(Cl)c(-c2ccc3c(c2)COc2cc4c(ccc5nc([C@@H]6CC[C@H](C)N6C(=O)[C@@H](NC(=O)OC)[C@@H](C)OC)[nH]c54)cc2-3)[nH]1)[C@@H](C)OC` [GB, Methyl [(2S,3R)-1-{(2S,5S)-2-[9-(4-chloro-2-{(2S,5S)-1-[N-(methoxycarbonyl)-O-methyl-L-threonyl]-5-methylpyrrolidin-2-yl}-1H-imidazol-5-yl)-1,11-dihydroisochromeno[4′,3′:6,7]naphtho[1,2-d]imidazol-2-yl]-5-methylpyrrolidin-1-yl}-3-methoxy-1-oxobutan-2-yl]carbamate], the pEC50 in assay [1] (setting [9]) was more than 10.00; in assay [2] it was more than 10.00; in assay [3], more than 10.00; in assay [4] it was more than 10.00; in assay [5] (read-out: 3a (s), (s)), more than 10.00; in assay [5] (setting [13]), more than 10.00. The pEC50 was 10.80 in assay [6], more than 10.00 in assay [6] (activity range), 10.72 in assay [7] and more than 10.00 in assay [8]. In addition, the EC50 came to 0.089 nM in assay [1] (setting [10]); 0.023 nM in assay [2]; 0.007 nM in assay [3]; 0.075 nM in assay [4]; 0.029 nM in assay [5] (setting [11]); 0.034 nM in assay [5] (setting [12]). Also, in assay [8], the EC50 amounted to 0.011 nM.

For the compound `COC(=O)N[C@H](C(=O)N1[C@@H](C)CC[C@H]1c1ncc(-c2ccc3c(c2)COc2cc4c(ccc5nc([C@@H]6CC[C@H](C)N6C(=O)[C@@H](NC(=O)OC)[C@H](C)OC)[nH]c54)cc2-3)[nH]1)C(C)C` [FK, Methyl [(2S)-1-{(2S,5S)-2-[5-(2-{(2S,5S)-1-[N-(methoxycarbonyl)-O-methyl-L-allothreonyl]-5-methylpyrrolidin-2-yl}-1,11-dihydroisochromeno[4′,3′:6,7]naphtho[1,2-d]imidazol-9-yl)-1H-imidazol-2-yl]-5-methylpyrrolidin-1-yl}-3-methyl-1-oxobutan-2-yl]carbamate], the pEC50 was 9.00 to 10.00 in assay [1] (setting [9]); 9.00 to 10.00 in assay [2]; more than 10.00 in assay [3]; 9.00 to 10.00 in assay [4]; 9.00 to 10.00 in assay [5] (read-out: 3a (s), (s)); 10.62 in assay [6]. Moreover, the results for the pEC50 in assay [6] (activity range), in assay [7] and in assay [8] were more than 10.00, 10.43 and more than 10.00, respectively. In addition, the EC50 in assay [1] (setting [10]) was 0.476 nM; in assay [2], 0.4 nM; in assay [3], 0.018 nM; in assay [4], 0.498 nM; in assay [5] (setting [11]), 0.137 nM; in assay [8], 0.038 nM.

As to `COC(=O)N[C@H](C(=O)N1[C@@H](C)CC[C@H]1c1ncc(-c2ccc3c(c2)COc2cc4c(ccc5nc([C@@H]6CC[C@H](C)N6C(=O)[C@@H](NC(=O)OC)[C@@H](C)O)[nH]c54)cc2-3)[nH]1)C(C)C` [FI, Methyl {(2S,3R)-3-hydroxy-1-[(2S,5S)-2-(9-{2-[(2S,5S)-1-{(2S)-2-[(methoxycarbonyl)amino]-3-methylbutanoyl}-5-methylpyrrolidin-2-yl]-1H-imidazol-5-yl}-1,11-dihydroisochromeno[4′,3′:6,7]naphtho[1,2-d]imidazol-2-yl)-5-methylpyrrolidin-1-yl]-1-oxobutan-2-yl}carbamate], the pEC50 in assay [1] (setting [9]) is 9.00 to 10.00; in assay [3], more than 10.00; in assay [4], 9.00 to 10.00; in assay [5] (read-out: 3a (s), (s)), more than 10.00; in assay [6], 11.00; in assay [6] (activity range), more than 10.00. The pEC50 in assay [7] is 10.66; in assay [8], more than 10.00. Besides, the EC50 was determined as 0.152 nM in assay [1] (setting [10]); 0.012 nM in assay [3]; 0.115 nM in assay [4]; 0.04 nM in assay [5] (setting [11]); 0.015 nM in assay [8].
